The results in this text go back to patent publication US20130205449A1, “Methods and Compositions for Production of Triploid Sterile Plants” (University of Connecticut, priority 2011, published 2013).

What all share (type): cell-based, Euonymus alatus
The test system of experiment [1] is E. alatus ‘Compactus’ immature endosperm explants. The experiment can be described thus: Callus induction from immature endosperm explants. As to conditions: in combination with the same concentration of BA. On the procedure:
(§1) Except for rooting, all the media described herein were composed of MS salts (Murashige and Skoog, 1962) with 100 mg/L myo-inositol, 2.0 mg/L glycine, 1.0 mg/L thiamine-HCl, 0.5 mg/L nicotinic acid, 0.5 mg/L pyridoxine-HCl, 0.3 g/L casein hydrolysate, 0.5 g/L 2-(Nmorpholino) ethanesulfonic acid, 30.0 g/L sucrose, and 7.0 g/L agar. The pH of all culture media was adjusted to 5.8 with KOH or HCl before addition of agar. All media were autoclaved at 121° C. for 20 minutes, and all the cultures, except for those specifically mentioned, were maintained at 23±2° C. under 35 to 45 μmol/m^2s light provided by white cool fluorescent tube lamps over a 16-hour photoperiod.
Endosperm tissues with seedcoats and embryos completely removed were used for triploid callus induction (FIG. 1A). […]
Seed coats and embryos were removed, and the immature endosperm explants were cultured in disposable petri dishes (90×20 mm) containing MS medium supplemented with different combinations of four concentrations of BA (2.22, 4.44, 8.88, and 17.76 μM), three concentrations of NAA (2.69, 5.38, and 10.76 μM), and two concentrations of 2,4-dichlorophenoxy-acetic acid (2,4-D) (2.26 and 9.04 μM) to induce callus formation. […] Callus formation data were recorded at Week 12 of culture, and mean number of immature endosperm explants forming calli was calculated based on three replicates for each treatment. […]

Experiment [2] has as its system shoots from embryo or endosperm-derived calli. The experiment can be described thus: Rooting of regenerated shoots. How it is done:
After shoot buds were formed from embryo or endosperm-derived calli, they were transferred together with their callus explants into Magenta boxes containing the MS medium supplemented with 4.44 μM BA and 0.49 μM IBA for further growth. When the shoots grew to 1 to 2 cm in height, they were excised from callus tissues and cultured on root induction Medium I, which included half strength WPM (Lloyd and McCown, 1980, Proc. Intl. Plant Prop. Soc., 30:421-427) with 2% sucrose, 0.04% ammonium nitrate, 0.4% agar, 0.14% phytagel (a blended agar and phytagel medium was used to produce a totally transparent medium so that initiation and growth of roots could be easily monitored), and 4.9 μM IBA (Clements, 2007, In vitro induction of polyploidy, rooting, and overcoming the dormancy limitations of Euonymus alatus ‘Compactus,” MS Thesis, Univ. of. Conn., p. 536)). Two weeks later, the shoots were transferred onto rooting Medium II (Clements, 2007), which was IBA-free rooting Medium I with 2 g/L activated charcoal (Kang et al., 2009). The pH of the rooting media was adjusted to 5.2 with KOH or HCl before the addition of gelling agents. The root cultures were transferred to fresh medium every four weeks. […]

Experiment [3] concerns immature endosperm-derived calli of E. alatus ‘Compactus’. The experiment can be described thus: Shoot bud induction from immature endosperm-derived calli. The settings on record: zeatin at 9.13 or 18.26 μM, kinetin at 9.30 or 18.60 μM, in the presence of 0.49 μM IBA. How it is done:
as §1
After 12 weeks of culture, compact, greenish calli formed on six callus induction media supplemented with 2.22, 4.44, or 8.88 μM BA and 2.69 or 5.38 μM NAA were cut into pieces (approximately 0.5 cm×0.5 cm in size) and transferred to the petri dishes containing shoot induction media supplemented with 4.44 or 13.32 μM BA, 9.13 or 18.26 μM zeatin, and 9.30 or 18.60 μM kinetin plus 0.49 μM IBA or 0.57 μM indole-3-acetic acid (IAA). Callus segments also were cultured on hormone free MS medium as a control. […] Bud (shoot bud) formation was recorded at Week 8 of culture. Bud induction rates were calculated by dividing the number of calli forming shoot buds by the number of calli cultured. […]

`O=C(O)COc1ccc(Cl)cc1Cl` [2,4-D, 2,4-dichlorophenoxy-acetic acid]: in experiment [1], the “Effectiveness in callus induction compared with NAA” value is listed as “less effective in callus induction than NAA”.

`O=C(O)CCCc1c[nH]c2ccccc12` [IBA, indole-3-butyric acid]: the “Shoots developed into healthy plants with well-developed roots” value in experiment [2] (Medium I with 4.9 μM IBA two weeks, then IBA-free Medium II with 2 g/L activated charcoal, within 10 weeks of culture) is listed as 85%. Also, the Shoots rooted entry in experiment [2] (WPM with 4.9 μM IBA for two weeks, then hormone-free WPM with 2.0 g/L activated charcoal for four weeks) is reported as “Eighty five percent”.

For the molecule `C/C(=C\CNc1ncnc2[nH]cnc12)CO` [zeatin], in experiment [3], the Bud formation entry was “failed to induce bud formation”.

With `c1coc(CNc2ncnc3[nH]cnc23)c1` [kinetin], the Bud formation entry in experiment [3] is listed as “failed to induce bud formation”.
